Laboratory results from the NIST ThermoML archive (doi:10.1016/j.jct.2011.04.022).
Several values for one entry are separate records, joined by “and”; a condition that tells them apart may be missing. Identical values can stand only once. Numbers after ± are expanded uncertainties.

Key:
[1] = Crystal, Calculated from knudsen effusion weight loss
[2] = molar enthalpy of vaporization or sublimation; settings: 298.15 K; Crystal; Second Law analysis of vapor pressure data

Nc1ccccc1-n1cccc1 [1-(2-aminophenyl)pyrrole]
vapor or sublimation pressure ([1]; 296.12 K): 6.43e-05 ± 3.2e-06 kPa and 6.33e-05 ± 3.2e-06 kPa and 6.58e-05 ± 3.3e-06 kPa | vapor or sublimation pressure ([1]; 298.22 K): 8.56e-05 ± 4.3e-06 kPa and 8.51e-05 ± 4.3e-06 kPa and 8.36e-05 ± 4.2e-06 kPa | vapor or sublimation pressure ([1]; 300.2 K): 0.000112 ± 6e-06 kPa and 0.000108 ± 5e-06 kPa and 0.000107 ± 5e-06 kPa | vapor or sublimation pressure ([1]; 302.11 K): 0.000137 ± 7e-06 kPa and 0.000144 ± 7e-06 kPa | vapor or sublimation pressure ([1]; 304.19 K): 0.000179 ± 9e-06 kPa and 0.000182 ± 9e-06 kPa and 0.000178 ± 9e-06 kPa | vapor or sublimation pressure ([1]; 306.19 K): 0.00024 ± 1.2e-05 kPa and 0.000228 ± 1.1e-05 kPa and 0.000227 ± 1.1e-05 kPa | vapor or sublimation pressure ([1]; 308.08 K): 0.000301 ± 1.5e-05 kPa and 0.0003 ± 1.5e-05 kPa and 0.000297 ± 1.5e-05 kPa | vapor or sublimation pressure ([1]; 310.2 K): 0.000388 ± 1.9e-05 kPa and 0.000386 ± 1.9e-05 kPa and 0.000377 ± 1.9e-05 kPa | vapor or sublimation pressure ([1]; 312.2 K): 0.000503 ± 2.5e-05 kPa and 0.000481 ± 2.4e-05 kPa and 0.00048 ± 2.4e-05 kPa | vapor or sublimation pressure ([1]; 314.11 K): 0.000643 ± 3.2e-05 kPa and 0.000635 ± 3.2e-05 kPa and 0.000623 ± 3.1e-05 kPa | vapor or sublimation pressure ([1]; 316.18 K): 0.000816 ± 4.1e-05 kPa and 0.000808 ± 4e-05 kPa and 0.000788 ± 3.9e-05 kPa | vapor or sublimation pressure ([1]; 318.18 K): 0.001059 ± 0.00011 kPa and 0.001011 ± 0.0001 kPa and 0.000991 ± 5e-05 kPa | molar enthalpy [2]: 23.61 ± 0.191 kcal/mol
